# Source: the supplement of paper PMC4862054
# Test system: CAL-148
# Assay: normalised response (% of control), CellTiter-Glo; higher = more viable cells (100 = DMSO, 0 = benzethonium chloride kill control)
# Conditions: incubation time: 72 h
# Outline: (§1)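 Breast cancer cell lines (20 µl suspension) were seeded into 384-well plates holding compound at 5 concentrations in 10-fold steps over a compound-specific 10,000-fold range, then incubated 72 h. CellTox Green fluorescence (485/520 nm) was read first, then CellTiter-Glo luminescence after 10 min at room temperature. Each plate was normalised to 0.1 % DMSO (100) and a positive kill control (0). Each value is the normalised signal at a single concentration of the series.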
row,Compound,normalised response [%]
1,CCn1c(-c2nonc2N)nc2cnc(Oc3cccc(NC(=O)c4ccc(OCCN5CCOCC5)cc4)c3)cc21 (1 nM),98.6
2,CCn1c(-c2nonc2N)nc2cnc(Oc3cccc(NC(=O)c4ccc(OCCN5CCOCC5)cc4)c3)cc21 (10 nM),94.9
3,N#Cc1ccc(COC[C@H]2O[C@@H](n3c(NCc4ccc(Cl)c(Cl)c4)nc4c(N)ncnc43)[C@H](O)[C@@H]2O)cc1 (10 nM),115
4,COc1cc(O)c2c(c1)/C=C/C[C@H](O)[C@H](O)C(=O)/C=C\C[C@H](C)OC2=O [(5Z)-7-Oxozeaenol] (1 nM),104
5,COc1cc(O)c2c(c1)/C=C/C[C@H](O)[C@H](O)C(=O)/C=C\C[C@H](C)OC2=O [(5Z)-7-Oxozeaenol] (10 nM),106
6,COc1cc(OC2CCN(C)CC2)ccc1Nc1ncc2c(n1)n(C1CCCC1)c(=O)n2C [AZ 3146] (10 nM),99.7
7,CNC(=O)c1cccc(-c2ccc3c(N4CCOC[C@@H]4C)nc(N4CCOC[C@@H]4C)nc3n2)c1 [AZD2014] (1 nM),111
8,CNC(=O)c1cccc(-c2ccc3c(N4CCOC[C@@H]4C)nc(N4CCOC[C@@H]4C)nc3n2)c1 [AZD2014] (10 nM),106
9,CN(C)c1nc(N(C)C)nc(N(C)C)n1 [Altretamine] (10 nM),109
10,O=C(/C=C/c1cccc(S(=O)(=O)Nc2ccccc2)c1)NO [Belinostat] (10 nM),85.7
11,Nc1cc(C(F)(F)F)c(-c2cc(N3CCOCC3)nc(N3CCOCC3)n2)cn1 [Buparlisib] (1 nM),95
12,Nc1cc(C(F)(F)F)c(-c2cc(N3CCOCC3)nc(N3CCOCC3)n2)cn1 [Buparlisib] (10 nM),97
13,O=P1(N(CCCl)CCCl)NCCCO1 (centres undefined) [Cyclophosphamide] (40 nM),104
14,CNC(=O)c1ccc(N2C(=S)N(c3ccc(C#N)c(C(F)(F)F)c3)C(=O)C2(C)C)cc1F [Enzalutamide] (1 nM),102
15,CNC(=O)c1ccc(N2C(=S)N(c3ccc(C#N)c(C(F)(F)F)c3)C(=O)C2(C)C)cc1F [Enzalutamide] (10 nM),107
16,C=C1C[C@@H]2[C@H](CC[C@]3(C)C(=O)CC[C@@H]23)[C@@]2(C)C=CC(=O)C=C12 [Exemestane] (10 nM),109
17,Cc1cc(Nc2cc(CN3CCOCC3)c3nc(C)c(Cc4ccc(Cl)cc4F)n3n2)n[nH]1 [Gandotinib] (10 nM),110
18,O=C(Nc1ccncc1)C(=O)c1cn(Cc2ccc(Cl)cc2)c2ccccc12 [Indibulin] (10 nM),109
19,Cc1ccc(NC(=O)c2ccc(CN3CCN(C)CC3)cc2)cc1Nc1nc(-c2cccnc2)cs1 [Masitinib] (10 nM),108
20,Cc1[nH]c2ccccc2c1CCNCc1ccc(/C=C/C(=O)NO)cc1 [Panobinostat] (1 nM),101
21,COCC1(CO)C(=O)C2CCN1CC2 (centres undefined) [Prima-1 Met] (10 nM),102

# Test system: BT-549
# Assay: as above
# Conditions: incubation time: 72 h
# Outline: as §1
row,Compound,normalised response [%]
1,CCn1c(-c2nonc2N)nc2cnc(Oc3cccc(NC(=O)c4ccc(OCCN5CCOCC5)cc4)c3)cc21 (1 nM),108
2,CCn1c(-c2nonc2N)nc2cnc(Oc3cccc(NC(=O)c4ccc(OCCN5CCOCC5)cc4)c3)cc21 (10 nM),97.3
3,N#Cc1ccc(COC[C@H]2O[C@@H](n3c(NCc4ccc(Cl)c(Cl)c4)nc4c(N)ncnc43)[C@H](O)[C@@H]2O)cc1 (10 nM),103
4,COc1cc(O)c2c(c1)/C=C/C[C@H](O)[C@H](O)C(=O)/C=C\C[C@H](C)OC2=O [(5Z)-7-Oxozeaenol] (1 nM),109
5,COc1cc(O)c2c(c1)/C=C/C[C@H](O)[C@H](O)C(=O)/C=C\C[C@H](C)OC2=O [(5Z)-7-Oxozeaenol] (10 nM),103
6,COc1cc(OC2CCN(C)CC2)ccc1Nc1ncc2c(n1)n(C1CCCC1)c(=O)n2C [AZ 3146] (10 nM),96.3
7,CNC(=O)c1cccc(-c2ccc3c(N4CCOC[C@@H]4C)nc(N4CCOC[C@@H]4C)nc3n2)c1 [AZD2014] (1 nM),102
8,CNC(=O)c1cccc(-c2ccc3c(N4CCOC[C@@H]4C)nc(N4CCOC[C@@H]4C)nc3n2)c1 [AZD2014] (10 nM),96.8
9,CN(C)c1nc(N(C)C)nc(N(C)C)n1 [Altretamine] (10 nM),100
10,O=C(/C=C/c1cccc(S(=O)(=O)Nc2ccccc2)c1)NO [Belinostat] (10 nM),101
11,Nc1cc(C(F)(F)F)c(-c2cc(N3CCOCC3)nc(N3CCOCC3)n2)cn1 [Buparlisib] (1 nM),102
12,Nc1cc(C(F)(F)F)c(-c2cc(N3CCOCC3)nc(N3CCOCC3)n2)cn1 [Buparlisib] (10 nM),100
13,O=P1(N(CCCl)CCCl)NCCCO1 (centres undefined) [Cyclophosphamide] (40 nM),97.9
14,CNC(=O)c1ccc(N2C(=S)N(c3ccc(C#N)c(C(F)(F)F)c3)C(=O)C2(C)C)cc1F [Enzalutamide] (1 nM),107
15,CNC(=O)c1ccc(N2C(=S)N(c3ccc(C#N)c(C(F)(F)F)c3)C(=O)C2(C)C)cc1F [Enzalutamide] (10 nM),91.4
16,C=C1C[C@@H]2[C@H](CC[C@]3(C)C(=O)CC[C@@H]23)[C@@]2(C)C=CC(=O)C=C12 [Exemestane] (10 nM),98
17,Cc1cc(Nc2cc(CN3CCOCC3)c3nc(C)c(Cc4ccc(Cl)cc4F)n3n2)n[nH]1 [Gandotinib] (10 nM),100
18,O=C(Nc1ccncc1)C(=O)c1cn(Cc2ccc(Cl)cc2)c2ccccc12 [Indibulin] (10 nM),93.5
19,Cc1ccc(NC(=O)c2ccc(CN3CCN(C)CC3)cc2)cc1Nc1nc(-c2cccnc2)cs1 [Masitinib] (10 nM),101
20,Cc1[nH]c2ccccc2c1CCNCc1ccc(/C=C/C(=O)NO)cc1 [Panobinostat] (1 nM),101
21,COCC1(CO)C(=O)C2CCN1CC2 (centres undefined) [Prima-1 Met] (10 nM),93.7

# Test system: CAL-120
# Assay: as above
# Conditions: incubation time: 72 h
# Outline: as §1
row,Compound,normalised response [%]
1,CCn1c(-c2nonc2N)nc2cnc(Oc3cccc(NC(=O)c4ccc(OCCN5CCOCC5)cc4)c3)cc21 (1 nM),41.8
2,CCn1c(-c2nonc2N)nc2cnc(Oc3cccc(NC(=O)c4ccc(OCCN5CCOCC5)cc4)c3)cc21 (10 nM),92.4
3,N#Cc1ccc(COC[C@H]2O[C@@H](n3c(NCc4ccc(Cl)c(Cl)c4)nc4c(N)ncnc43)[C@H](O)[C@@H]2O)cc1 (10 nM),97.2
4,COc1cc(O)c2c(c1)/C=C/C[C@H](O)[C@H](O)C(=O)/C=C\C[C@H](C)OC2=O [(5Z)-7-Oxozeaenol] (1 nM),99.8
5,COc1cc(O)c2c(c1)/C=C/C[C@H](O)[C@H](O)C(=O)/C=C\C[C@H](C)OC2=O [(5Z)-7-Oxozeaenol] (10 nM),94.9
6,COc1cc(OC2CCN(C)CC2)ccc1Nc1ncc2c(n1)n(C1CCCC1)c(=O)n2C [AZ 3146] (10 nM),103
7,CNC(=O)c1cccc(-c2ccc3c(N4CCOC[C@@H]4C)nc(N4CCOC[C@@H]4C)nc3n2)c1 [AZD2014] (1 nM),98.4
